Among the data in patent US7550485B2, “Substituted N-heterocycle derivatives and methods of their use” (Wyeth, priority 2003, dated 2009) are inhibition and EC50 values, retold here.

SMILES strings stand for the structures. Where a name gives a salt, the structure may show the parent alone.

This assay has as its target T1, hNET (Homo sapiens, UniProt P23975).
T1 construct: expressed in transfected cells
Put plainly: Norepinephrine (NE) uptake assay in MDCK-Net6 cells stably transfected with human hNET. It is filed as cell-based. The following applies: [3H]NE uptake; for inhibition at 1 µM: MDCK-Net6, 1 μM test compound; for EC50: test range 1 to 10,000 nM; for inhibition at 30 µM: MDCK-Net6, 30 μM test compound (stated in cell). Put shortly: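 MDCK-Net6 cells preincubated 20 min at 37 °C with compound (1 to 10,000 nM) in HEPES buffer pH 7.4 with pargyline and ascorbate, then 5 min [3H]NE uptake (120 nM final). Lysed cells counted by scintillation; 1 μM desipramine defined minimum uptake; EC50 from logistic fit of pooled data.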

T1 sequence (P23975 whole entry): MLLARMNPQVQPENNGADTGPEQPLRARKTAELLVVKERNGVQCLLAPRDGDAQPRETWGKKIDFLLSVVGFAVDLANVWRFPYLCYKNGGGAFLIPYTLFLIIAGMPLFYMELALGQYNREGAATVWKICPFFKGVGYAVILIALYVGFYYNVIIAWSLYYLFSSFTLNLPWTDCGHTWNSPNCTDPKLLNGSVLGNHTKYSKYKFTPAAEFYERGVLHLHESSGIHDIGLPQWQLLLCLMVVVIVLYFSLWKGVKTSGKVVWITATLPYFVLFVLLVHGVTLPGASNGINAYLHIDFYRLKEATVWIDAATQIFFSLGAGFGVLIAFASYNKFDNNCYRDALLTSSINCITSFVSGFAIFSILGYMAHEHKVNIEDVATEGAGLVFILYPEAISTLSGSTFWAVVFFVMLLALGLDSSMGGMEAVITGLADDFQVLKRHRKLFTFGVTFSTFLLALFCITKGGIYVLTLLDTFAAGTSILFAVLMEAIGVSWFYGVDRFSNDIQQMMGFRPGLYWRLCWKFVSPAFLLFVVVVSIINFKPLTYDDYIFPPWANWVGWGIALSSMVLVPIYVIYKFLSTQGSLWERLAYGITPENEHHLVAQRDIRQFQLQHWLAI

On to `OC1(C(CN2CCC(N3CCCCC3)CC2)c2cccc(Oc3ccccc3)c2)CCCCC1` (centres unmarked) [Example 314, 1-[2-(1,4′-bipiperidin-1′-yl)-1-[3-(phenoxyphenyl)ethyl]cyclohexanoldihydrochloride], for which the inhibition (commonly the change of the read-out against control, counted positive when it falls) at 1 µM came to 95.5%.
The same measure, in the same setting: the result for `OC1(C(CN2CCC(N3CCCCC3)CC2)c2ccc(OCCc3ccccc3)cc2)CCCCC1` (centres unmarked) [Example 461, 1-{2-(1,4′-bipiperidin-1′-yl)-1-[4-(2-phenylethoxy)phenyl]ethyl}cyclohexanol dihydrochloride] reads 17%; that for `CN(C)C1CCN(CC(c2ccc3ccccc3c2)C2(O)CCCCC2)CC1` (centres unmarked) [Example 317, 1-[2-[4-(dimethylamino)piperidin-1-yl]-1-(2-naphthyl)ethyl]cyclohexanol dihydrochloride], 21.2%; that for `CN(C)[C@H]1CCCN(CC(c2cccc(OC(F)(F)F)c2)C2(O)CCCCC2)C1` (stereo partly drawn) [Example 191, 1-{2-[(3S)-3-(dimethylamino)piperidin-1-yl]-1-[3-(trifluoromethoxy)phenyl]ethyl}cyclohexanol dihydrochloride], 12.3%.
For the molecule `COc1ccc(C(CN2CCC(N3CCCC3)CC2)C2(O)CCCCC2)cc1Br` (centres unmarked) [Example 9, 1-[1-(3-bromo-4-methoxyphenyl)-2-(4-pyrrolidin-1-ylpiperidin-1-yl)ethyl]cyclohexanol dihydrochloride], testing at 1 µM gave an inhibition of 93% and the response was half-maximal at 180 nM (EC50).
Molecule `NC1CCN(CC(c2cccc3ccccc23)C2(O)CCC2)CC1` (centres unmarked) [Example 43, 1-[2-(4-aminopiperidin-1-yl)-1-(1-naphthyl)ethyl]cyclobutanol dihydrochloride] came in with an inhibition at 1 µM of 47%.
Take `CNC1CCN(CC(c2ccc(OC)c(Br)c2)C2(O)CCCCC2)CC1` (centres unmarked) [Example 29, 1-{1-(3-bromo-4-methoxyphenyl)-2-[4-(methylamino)piperidin-1-yl]ethyl}cyclohexanol dihydrochloride]: the inhibition at 1 µM was 79% and the EC50 (in general, the concentration giving half of the maximal effect) was determined as 150 nM.
Consider `N[C@@H]1CCN(CC(c2cccc(OC(F)(F)F)c2)C2(O)CCCCC2)C1` (stereo partly drawn) [Example 386, 1-{2-[(3R)-3-aminopyrrolidin-1-yl]-1-[3-(trifluoromethoxy)phenyl]ethyl}cyclohexanol dihydrochloride], for which at 30 µM the inhibition was 82%.
For `OC1(C(CN2CCC(N3CCCCC3)CC2)c2cccc(C(F)(F)F)c2)CCCCC1` (centres unmarked) [Example 20, 1-{2-(1,4′-bipiperidin-1′-yl)-1-[3-(trifluoromethyl)phenyl]ethyl}cyclohexanol dihydrochloride], the inhibition at 1 µM came out at 88% and the EC50 was determined as 260 nM.
The molecule `CN(C)[C@H]1CCN(CC(c2ccc3ccccc3c2)C2(O)CCCCC2)C1` (stereo partly drawn) [Example 205, 1-[2-[(3S)-3-(dimethylamino)pyrrolidin-1-yl]-1-(2-naphthyl)ethyl]cyclohexanol dihydrochloride] gave an inhibition at 1 µM of 39.5%.
`CNC1CCN(C[C@@H](c2cccc(Cl)c2)C2CCCCC2)CC1` (single isomer, unassigned) [Example 356, dihydrochloride]: 1 µM produced 56% inhibition.
The same measure, in the same setting: the result for `COC1CCN(CC(c2ccc(OCc3ccccc3)c(Cl)c2)C2(O)CCCCC2)CC1` (centres unmarked) [Example 242, 1-[1-[4-(benzyloxy)-3-chlorophenyl]-2-(4-methoxypiperidin-1-yl)ethyl]cyclohexanol hydrochloride] reads 2%.
In turn, `NC1CCN(CC(c2ccc(OC(F)(F)F)cc2)C2(O)CCCCC2)CC1` (centres unmarked) [Example 303, 1-{2-(4-aminopiperidin-1-yl)-1-[4-(trifluoromethoxy)phenyl]ethyl}cyclohexanol dihydrochloride] yielded an inhibition at 1 µM of 18.7%.
`CN(C)[C@H]1CCN(CC(c2ccc(OCc3ccccc3)c(Cl)c2)C2(O)CCCCC2)C1` (stereo partly drawn) [Example 211, 1-{1-[4-(benzyloxy)-3-chlorophenyl]-2-[(3S)-3-(dimethylamino)pyrrolidin-1-yl]ethyl}cyclohexanol dihydrochloride] gave an inhibition at 1 µM of 95.6%.
In the case of `N[C@H]1CCN(CC(c2cccc(Cl)c2)C2(O)CCCCC2)C1` (stereo partly drawn) [Example 16, 1-[2-[(3S)-3-aminopyrrolidin-1-yl]-1-(3-chlorophenyl)ethyl]cyclohexanol dihydrochloride], the inhibition at 1 µM is 89% and the EC50 was found to be 120 nM.
`CN(C)C1CCN(CC(c2cccc(Cl)c2)C2CCCCCC2)CC1` (centres unmarked) [Example 237, 1-[2-(3-chlorophenyl)-2-cycloheptylethyl]-N,N-dimethylpiperidin-4-amine dihydrochloride] returned an inhibition at 1 µM of 81.9%.
Molecule `CN[C@H]1CCN(CC(c2cccc3ccccc23)C2(O)CCCCC2)C1` (stereo partly drawn) [Example 206, 1-[2-[(3S)-3-(methylamino)pyrrolidin-1-yl]-1-(1-naphthyl)ethyl]cyclohexanol dihydrochloride] yielded an inhibition at 1 µM of 19.2%.
Still for that read-out and setting: the result for `CNC1CCN(CC(c2ccc3cc(OC)ccc3c2)C2(O)CCCCC2)CC1` (centres unmarked) [Example 344, 1-{1-(6-methoxy-2-naphthyl)-2-[4-(methylamino)piperidin-1-yl]ethyl}cyclohexanol dihydrochloride] reads 52%; that for `N[C@H]1CCCN(CC(c2ccc(OCc3ccccc3)c(Cl)c2)C2(O)CCCCC2)C1` (stereo partly drawn) [Example 196, 1-{2-[(3S)-3-aminopiperidin-1-yl]-1-[4-(benzyloxy)-3-chlorophenyl]ethyl}cyclohexanol dihydrochloride], 92.2%.
`CN(C)[C@H]1CCN(CC(c2cccc(C(F)(F)F)c2)C2(O)CCCCC2)C1` (stereo partly drawn) [Example 222, 1-{2-[(3S)-3-(dimethylamino)pyrrolidin-1-yl]-1-[3-(trifluoromethyl)phenyl]ethyl}cyclohexanol dihydrochloride] had an inhibition at 1 µM of 31.9%.
Consider `COc1ccc2cc([C@@H](CN3CCC(N4CCCCC4)CC3)C3(O)CCCCC3)ccc2c1` (single isomer, unassigned) [Example 353, dihydrochloride], for which the inhibition at 1 µM amounted to 67% and a half-maximal response (EC50) required 320 nM.
Molecule `CN(C)[C@@H]1CCN(CC(c2ccc(OCc3ccccc3)cc2)C2(O)CCCCC2)C1` (stereo partly drawn) [Example 381, 1-{1-[4-(benzyloxy)phenyl]-2-[(3R)-3-(dimethylamino)pyrrolidin-1-yl]ethyl}cyclohexanol dihydrochloride] displayed an inhibition at 30 µM of 95%.
Molecule `N[C@@H]1CCN(CC(c2ccc3ccccc3c2)C2(O)CCCCC2)C1` (stereo partly drawn) [Example 374, 1-[2-[(3R)-3-aminopyrrolidin-1-yl]-1-(2-naphthyl)ethyl]cyclohexanol dihydrochloride] showed an inhibition at 1 µM of 46%.
As to `N[C@H]1CCN(CC(c2ccc(OCc3ccccc3)cc2)C2(O)CCCCC2)C1` (stereo partly drawn) [Example 213, 1-{2-[(3S)-3-aminopyrrolidin-1-yl]-1-[4 (benzyloxy)phenyl]ethyl}cyclohexanol dihydrochloride], at 1 µM the inhibition was 84.5%.
`COc1ccc(C(CN2CCC(N3CCCCC3)CC2)C2(O)CCCCC2)cc1Cl` (centres unmarked) [Example 458, 1-[2-(1,4′-bipiperidin-1′-yl)-1-(3-chloro-4-methoxyphenyl)ethyl]cyclohexanol dihydrochloride] had an inhibition at 1 µM of 79%.
With `CN(C)C1CCN(C[C@H](c2cccc(OC(F)(F)F)c2)C2(O)CCCCC2)CC1` [Example 360, 1-{(1S)-2-[4-(dimethylamino)piperidin-1-yl]-1-[3-(trifluoromethoxy)phenyl]ethyl}cyclohexanol dihydrochloride], at 1 µM the inhibition was 88% and the EC50 turned out to be 220 nM.
